Measured values published in US20090118331A1, “Use of Lobeline Epimers in the Treatment of Central Nervous System Diseases, Pathologies, and Drug Abuse” (priority 2007, published 2009).

Legend:
[1] = Lobeline epimerization in pH 7.4 phosphate buffer control; details: after 2 hours, with impurity
Experimental: In order to determine the tendency of lobeline to undergo epimerization in the HEPES buffer employed in the 25° C. [^3H]DTBZ binding study and the 37° C. VMAT2 uptake studies previously described, analogous solution epimerization experiments were conducted using the corresponding conditions for each individual assay. […] As this dynamic phenomenon occurs, the ratio of lobeline to lobeline epimer in solution naturally changes over time. Further, depending upon the solution conditions, the rate and extent of epimerization may vary; thus, a ratio of lobeline to epimer, if achieved, may occur at various time points. After 2 hours, the 25° C. […] The epimerization of lobeline in the 37° C.

in vivo = details: for AUC(0-inf) / AUC(0-t) / Cmax / MRT last / Tmax / Vd / clearance / half-life: rat, in vivo
Experimental: Here, serial doses of lobeline were administered to male and female rats intravenously, subcutaneously or orally, and the pharmacokinetic profiles of the parent lobeline and its epimer were monitored in plasma.

clinical = details: human, in vivo
Experimental: Three consecutive doses of lobeline (either 30, 45 and 45 mg in the first study group, or 60, 60 and 60 mg in the second group) were administered to human volunteers at 0800, 1200 and 1600 over two full inpatient days. The pharmacokinetics of lobeline and epimer were then assessed in each subject. […] A crude index of accumulation (non-steady state) was obtained by dividing the sixth dose trough concentration by that observed for the fifth dose.

[2] = Lobeline conversion to epimer in deionized water (HPLC); type: physicochemical
Experimental: Extensive in vitro studies on the epimerization of lobeline were conducted in a variety of aqueous media. […] The concentration of the lobeline solution (500 mL) was ca. 0.5 mg/mL, and 1.5 mL aliquot parts were removed in triplicate at each time point and analyzed by HPLC. Corresponding pH measurements were performed with a Coming Model 240 pH meter.

SMILES: CN1[C@@H](CC(=O)c2ccccc2)CCC[C@H]1C[C@H](O)c1ccccc1 [Lobeline, 2-[6S-(2S-hydroxy-2-phenyl-ethyl)-1-methyl-piperidin-2R-yl]-1-phenyl-ethanone]
- component content of solution ([1]; pH 7.4 phosphate buffer control, same temperature as 25° C. binding buffer): 64%
- component content of solution ([1]; phosphate buffer control for the 37° C. VMAT2 uptake buffer): 62%
- AUC(0-inf) (in vivo; female, iv, 2 mg/kg): 134 ng·h/mL
- AUC(0-t) (in vivo; female, iv, 2 mg/kg): 133 ng·h/mL
- Cmax (in vivo; female, iv, 2 mg/kg): 106 ng/mL
- MRT last (in vivo; female, iv, 2 mg/kg): 1.72 h
- Tmax (in vivo; female, iv, 2 mg/kg): 0.083 h
- Vd (in vivo; female, iv, 2 mg/kg): 27.2 L/kg
- clearance (in vivo; female, iv, 2 mg/kg): 0.248 mL/min/kg
- half-life (in vivo; female, iv, 2 mg/kg): 1.85 h
- AUC(0-inf) (in vivo; female, po, 20 mg/kg): 64.5 ng·h/mL
- AUC(0-t) (in vivo; female, po, 20 mg/kg): 62.7 ng·h/mL
- Cmax (in vivo; female, po, 20 mg/kg): 42.5 ng/mL
- MRT last (in vivo; female, po, 20 mg/kg): 1.92 h
- Tmax (in vivo; female, po, 20 mg/kg): 0.5 h
- half-life (in vivo; female, po, 20 mg/kg): 2.29 h
- AUC(0-inf) (in vivo; female, sc, 3 mg/kg): 193 ng·h/mL
- AUC(0-t) (in vivo; female, sc, 3 mg/kg): 191 ng·h/mL
- Cmax (in vivo; female, sc, 3 mg/kg): 142 ng/mL
- MRT last (in vivo; female, sc, 3 mg/kg): 1.42 h
- Tmax (in vivo; female, sc, 3 mg/kg): 0.25 h
- half-life (in vivo; female, sc, 3 mg/kg): 1.14 h
- AUC(0-inf) (in vivo; male, iv, 2 mg/kg): 135 ng·h/mL
- AUC(0-t) (in vivo; male, iv, 2 mg/kg): 134 ng·h/mL
- Cmax (in vivo; male, iv, 2 mg/kg): 144 ng/mL
- MRT last (in vivo; male, iv, 2 mg/kg): 1.54 h
- Tmax (in vivo; male, iv, 2 mg/kg): 0.083 h
- Vd (in vivo; male, iv, 2 mg/kg): 23.8 L/kg
- clearance (in vivo; male, iv, 2 mg/kg): 0.247 mL/min/kg
- half-life (in vivo; male, iv, 2 mg/kg): 1.68 h
- AUC(0-inf) (in vivo; male, po, 20 mg/kg): 105 ng·h/mL
- AUC(0-t) (in vivo; male, po, 20 mg/kg): 104 ng·h/mL
- Cmax (in vivo; male, po, 20 mg/kg): 91.2 ng/mL
- MRT last (in vivo; male, po, 20 mg/kg): 1.88 h
- Tmax (in vivo; male, po, 20 mg/kg): 0.5 h
- half-life (in vivo; male, po, 20 mg/kg): 1.97 h
- AUC(0-inf) (in vivo; male, sc, 3 mg/kg): 191 ng·h/mL
- AUC(0-t) (in vivo; male, sc, 3 mg/kg): 190 ng·h/mL
- Cmax (in vivo; male, sc, 3 mg/kg): 162 ng/mL
- MRT last (in vivo; male, sc, 3 mg/kg): 1.35 h
- Tmax (in vivo; male, sc, 3 mg/kg): 0.083 h
- half-life (in vivo; male, sc, 3 mg/kg): 1.18 h
- ratio of lobeline to epimer in plasma (comparison of AUC; x to 1) (in vivo; rats, depending on sex and route of administration): 1.5-2
- systemic absorption of lobeline, followed by subsequent epimerization, when given orally (in vivo; rats, females compared to males): significantly reduced in females as compared to males
- half-life (clinical): 3.91 h
- time at which geometric mean plasma concentration peaked (clinical): 1.26 h
- % Lobeline (Mean ± SD) ([2]; Solution 1 (Lobeline in “fresh” DI Water), time 0, pH 6.02): 99.16%
- % Lobeline (Mean ± SD) ([2]; Solution 1 (“fresh” DI Water), 15 min, pH 6.03-6.24): 99.17 ± 0.053%
- % Lobeline (Mean ± SD) ([2]; Solution 1 (“fresh” DI Water), 30 min, pH 6.02-6.24): 99.01 ± 0.162%
- % Lobeline (Mean ± SD) ([2]; Solution 1 (“fresh” DI Water), 45 min, pH 6.13-6.37): 99.06 ± 0.146%
- % Lobeline (Mean ± SD) ([2]; Solution 1 (“fresh” DI Water), 1 h, pH 6.26-6.52): 99.00 ± 0.195%
- % Lobeline (Mean ± SD) ([2]; Solution 1 (“fresh” DI Water), 80 min, pH 6.19-6.50): 98.54 ± 0.112%
- % Lobeline (Mean ± SD) ([2]; Solution 1 (“fresh” DI Water), 100 min, pH 6.16-6.50): 98.50 ± 0.139%
- % Lobeline (Mean ± SD) ([2]; Solution 1 (“fresh” DI Water), 2 h, pH 5.63-5.88): 98.42 ± 0.601%
- % Lobeline (Mean ± SD) ([2]; Solution 2 (Lobeline in “8-h” DI Water), time 0, pH 7.87): 98.97%
- % Lobeline (Mean ± SD) ([2]; Solution 2 (“8-h” DI Water), 15 min, pH 7.78-8.21): 99.34 ± 0.274%
- % Lobeline (Mean ± SD) ([2]; Solution 2 (“8-h” DI Water), 30 min, pH 7.58-7.85): 99.49 ± 0.215%
- % Lobeline (Mean ± SD) ([2]; Solution 2 (“8-h” DI Water), 45 min, pH 7.66-7.68): 99.35 ± 0.056%
- % Lobeline (Mean ± SD) ([2]; Solution 2 (“8-h” DI Water), 1 h, pH 6.84-7.11): 99.20 ± 0.085%
- % Lobeline (Mean ± SD) ([2]; Solution 2 (“8-h” DI Water), 80 min, pH 6.53-6.79): 99.11 ± 0.150%
- % Lobeline (Mean ± SD) ([2]; Solution 2 (“8-h” DI Water), 100 min, pH 6.24-6.51): 98.99 ± 0.206%
- % Lobeline (Mean ± SD) ([2]; Solution 2 (“8-h” DI Water), 2 h, pH 6.21-6.49): 98.78 ± 0.258%
